Where “and” joins values, the source holds several entries; their conditions need not be identical. Equal values may be shown once. Read-outs that look alike come from different tables or passages of the source. One block for each molecule: values may come before it.
Key:
[1] = test system: developmental or reproductive toxicity in animal or human; details: cited from earlier work
[2] = test system: human developmental and reproductive toxicity; details: cited from earlier work
[3] = renal clearance, Fup*GFR (PBK parameter); details: method Fup*GFR
[4] = cited from earlier work; for MoS: existent consumer risk assessment for the cosmetic use scenario, ref SCCS / SCCP / SCCNFP; for ADI: ref FSCJ, EFSA, SCF, JMPR as named in the cell
[5] = Human in vivo PK data: concentration-dose ratio (CDR) and toxicokinetic variability factor (TKVF); design: 95% percentile (Conc-dose-ratio): unit not given here;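 note: Literature-pooled human in vivo PK data, plasma, serum or cord blood concentrations per daily dose, weighted by study population size across non-pregnant, pregnant and fetal groups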
[6] = Solubility pH 7, cited from earlier work
[7] = ref Supplementary Data Sheet 1, cited from earlier work
[8] = test system: rats; details: ref Supplementary Data Sheet 1, cited from earlier work
[9] = Bioactivity exposure ratio (BER): minimum platform PoD / estimated Cmax; details: low-risk exposure scenario of the compound
[10] = skin absorption / systemic exposure dose for dermal exposure (PBK parameter); type: in vitro ADME
Source text: Where a SED (systemic exposure dose) was reported systemic exposure from a dermal administration was modelled as a slow intravenous infusion of the SED, which corrects the applied dose for the rate of skin absorption (%). Where no SED was available dermal exposure route was predicted by the dermal module in GastroPlus® administration.

[11] = hepatic intrinsic clearance, CLint (PBK parameter); type: in vitro ADME
[12] = evidence of developmental or reproductive toxicity in animal or human, irrespective of exposure/dose, ref Supplementary Data Sheet 1
[13] = Non-Pregnant population (reference)
[14] = Non-Pregnant population, TKVF95 = p95 / weighted mean concentration-dose ratio
[15] = Non-Pregnant, combined (oral+IV)
[16] = two multigeneration rat studies
[17] = Pregnant population (reference)
[18] = Pregnant population, TKVF95 = p95 / weighted mean concentration-dose ratio
[19] = Foetus, oral, combined (tretinoin, retinyl palmitate, dietary retinoids)
[20] = Non-Pregnant, dermal, formulation radiolabelled tretinoin
[21] = Non-Pregnant, oral, combined (tretinoin, retinyl palmitate, dietary retinoids)
[22] = Pregnant, oral, combined (tretinoin, retinyl palmitate, dietary retinoids)

SMILES: CCCCCCC(O)CO (stereo not drawn) [1,2-Octanediol]
DART Hazard Call [1, 12]: Non Toxic | Exposure risk (DART risk classification) ([2]; Cosmetic, 5% in body lotion, dermal, ref Supplementary Data Sheet 1): Low Risk | Renal Clearance [3]: 5.129 L/h

SMILES: COc1ccc(C(=O)c2ccccc2)c(O)c1 [2-Hydroxy-4-methoxybenzophenone]
DART Hazard Call [1, 12]: Non Toxic | Exposure risk (DART risk classification) ([2]; Cosmetic, 6% in sunscreen, dermal, ref Supplementary Data Sheet 1): Low Risk | MoS [4]: Used safely in cosmetic products. Existent consumer risk assessment from the SCCS. MoS 38. | 95% percentile (Conc-dose-ratio) ([5]; Non-Pregnant, dermal): 0.000717 | Mean Conc-dose -ratio ([5]; Non-Pregnant, dermal): 0.00025 uM/(mg/day] | TKVF ([5]; Non-Pregnant, dermal): 2.84

SMILES: Cn1c(=O)c2c(ncn2C)n(C)c1=O [Caffeine]
TKVF ([5]; female, human, in vivo): 2.42 | TKVF ([5]; female, human, in vivo, po): 2.42 | TKVF ([5]; human, in vivo, po): 2.84

SMILES: O=S(=O)(O)NC1CCCCC1 [Cyclamate]
Aqueous Solubility ([6]; median, ref [5],[8]): 84.5 mg/mL | Exposure risk (DART risk classification) ([2]; Dietary, 420 mg/daily, oral, ref Supplementary Data Sheet 1): Low Risk | ADI [4]: ADI set by SCF (7mg/kg/day)

SMILES: O=P1(N(CCCl)CCCl)NCCCO1 (stereo not drawn) [Cyclophosphamide]
DART Hazard Call [1, 12]: Toxic | Exposure risk (DART risk classification) ([2]; Pharmaceutical, 60 mg/daily, oral, ref Supplementary Data Sheet 1): High Risk | CDR fold difference to non-pregnant [5, 13]: 1.00 | TKVF [5, 14]: 3.15 | 95% percentile (Conc-dose-ratio) [5, 15]: 0.09 | Fold Difference to non-pregnant [5, 15]: 1.00 | Mean Conc-dose -ratio [5, 15]: 0.030 uM/(mg/day] | TKVF [5, 15]: 3.15 | CDR fold difference to non-pregnant ([5]; Pregnant population): 2.85 | Fold Difference to non-pregnant ([5]; Pregnant, IV): 2.85 | Mean Conc-dose -ratio ([5]; Pregnant, IV): 0.084 uM/(mg/day]

SMILES: CC1(C)C(C=C(Cl)Cl)C1C(=O)OC(C#N)c1cccc(Oc2ccccc2)c1 (stereo not drawn) [Cypermethrin]
developmental NOAEL ([7]; DNT study): 15 mg/kg bw per day | NOAEL ([8]; 15-day intact adult male rat assay, decreased body weight gain): 6 mg/kg bw per day | reproductive NOAEL ([8]; two multigeneration rat studies, decreased survival of pups at birth): 10 mg/kg bw per day | offspring NOAEL [8, 16]: 10 mg/kg bw per day | parental NOAEL [8, 16]: 10 mg/kg bw per day

SMILES: CCN(CC)C(=O)c1cccc(C)c1 [DEET]
DART Hazard Call [1]: Uncertain | Exposure risk (DART risk classification) [2]: Low Risk | 95% percentile (Conc-dose-ratio) ([5]; in vivo): 0.0013 | Mean Conc-dose -ratio ([5]; in vivo): 0.00066 uM/(mg/day] | TKVF ([5]; in vivo): 1.97

SMILES: C[C@@H]1C[C@H]2[C@@H]3CCC4=CC(=O)C=C[C@]4(C)[C@@]3(F)[C@@H](O)C[C@]2(C)[C@@]1(O)C(=O)CO [Dexamethasone]
DART Hazard Call [1, 12]: Toxic | CDR fold difference to non-pregnant ([5]; female, human, in vivo): 1.50 | TKVF ([5]; female, human, in vivo): 2.51 | CDR fold difference to non-pregnant ([5]; human, in vivo): 1.00 | TKVF ([5]; human, in vivo): 1.99

SMILES: CC/C(=C(/CC)c1ccc(O)cc1)c1ccc(O)cc1 [Diethylstilbestrol (DES), Diethylstilbestrol]
DART Hazard Call [1, 12]: Toxic | Exposure risk (DART risk classification) ([2]; Pharmaceutical, 0.5 mg/daily, oral, ref Supplementary Data Sheet 1): High Risk

BER [9]: < 1
SMILES: C[C@H]1O[C@@H](O[C@H]2[C@@H](O)C[C@H](O[C@H]3[C@@H](O)C[C@H](O[C@H]4CC[C@@]5(C)[C@H](CC[C@@H]6[C@@H]5C[C@@H](O)[C@]5(C)[C@@H](C7=CC(=O)OC7)CC[C@]65O)C4)O[C@@H]3C)O[C@@H]2C)C[C@H](O)[C@@H]1O [Digoxin]
TKVF ([5]; female, human, in vivo): 2.35 | TKVF ([5]; female, human, in vivo, po): 2.35

SMILES: C[C@@H]1CCO[C@H]2Cn3cc(C(=O)NCc4ccc(F)cc4F)c(=O)c(O)c3C(=O)N12 [Dolutegravir]
DART Hazard Call [1, 12]: Toxic | Exposure risk (DART risk classification) ([2]; Pharmaceutical, 50 mg/daily, oral, ref Supplementary Data Sheet 1): High Risk | CDR fold difference to non-pregnant ([5]; Fetus population): 0.46 | CDR fold difference to pregnant ([5]; Fetus population): 0.65 | TKVF ([5]; Fetus population, TKVF95 = p95 / weighted mean concentration-dose ratio): 1.40 | 95% percentile (Conc-dose-ratio) ([5]; Foetus, oral): 0.11 | Fold Difference to non-pregnant ([5]; Foetus, oral): 0.46 | Fold Difference to pregnant ([5]; Foetus, oral): 0.65 | Mean Conc-dose -ratio ([5]; Foetus, oral): 0.08 uM/(mg/day] | TKVF ([5]; Foetus, oral): 1.40 | CDR fold difference to non-pregnant [5, 13]: 1.00 | TKVF [5, 14]: 1.87 | 95% percentile (Conc-dose-ratio) ([5]; Non-Pregnant, oral): 0.33 | Fold Difference to non-pregnant ([5]; Non-Pregnant, oral): 1.00 | Mean Conc-dose -ratio ([5]; Non-Pregnant, oral): 0.18 uM/(mg/day] | TKVF ([5]; Non-Pregnant, oral): 1.87 | CDR fold difference to non-pregnant ([5]; Pregnant population): 0.70 | CDR fold difference to pregnant [5, 17]: 1.00 | TKVF [5, 18]: 2.64 | 95% percentile (Conc-dose-ratio) ([5]; Pregnant, oral): 0.33 | Fold Difference to non-pregnant ([5]; Pregnant, oral): 0.70 | Fold Difference to pregnant ([5]; Pregnant, oral): 1.00 | Mean Conc-dose -ratio ([5]; Pregnant, oral): 0.12 uM/(mg/day] | TKVF ([5]; Pregnant, oral): 2.64

SMILES: O=CCCCC=O [Glutaraldehyde]
DART Hazard Call [1, 12]: Non Toxic | Aqueous Solubility ([6]; ref [7]): 167.2 mg/mL | Exposure risk (DART risk classification) ([2]; Cosmetic, 0.1% in body lotion, dermal, ref Supplementary Data Sheet 1): Low Risk | Renal Clearance [3]: 6.185 L/h | Chronic Dietary RfD ([4]; ref EPA): Chronic Dietary RfD set by EPA (0.16 mg/kg/day) | Diffusivity Dermis ([10]; optimised based on [10]): 1.00E-07 cm^2/s | Diffusivity Stratum Corneum ([10]; optimised based on [10]): 1.00E-09 cm^2/s | Diffusivity Viable Epidermis ([10]; optimised based on [10]): 5.00E-08 cm^2/s | Partition Coefficient Stratum Corneum/Water ([10]; optimised based on [10]): 2.30 | Partition Coefficient Viable Epidermis/Water ([10]; optimised based on [10]): 3.00 | highest dose tested without evidence of developmental toxicity ([8]; two developmental toxicity studies in the rat): 50 mg/kg/day and 68 mg/kg/day

Intrinsic Liver Clearance [11]: 248.1 L/h | Renal Clearance [3]: 4.496 L/h | Diffusivity Dermis ([10]; optimised based on [11]): 1.00E-08 cm^2/s | Diffusivity Stratum Corneum ([10]; optimised based on [11]): 1.00E-08 cm^2/s | Diffusivity Vehicle ([10]; optimised based on [11]): 1.00E-05 cm^2/s | Partition Coefficient Stratum Corneum/Water ([10]; optimised based on [11]): 1.50
SMILES: Nc1ccc(NCCO)c([N+](=O)[O-])c1 [HC Red 3]
NOAEL for maternal toxicity [7]: 200 mg/kg/day | DART Hazard Call [1]: Non Toxic | Exposure risk (DART risk classification) [2]: Low Risk | Diffusivity Viable Epidermis ([10]; optimised based on [11]): 1.00E-10 cm^2/s

SMILES: CC(C)(CO)C(O)C(=O)NCCCO (stereo not drawn) [Panthenol]
BER [9]: < 1 | Renal Clearance [3]: 6.348 L/h | Diffusivity Stratum Corneum ([10]; optimised based on [12]): 2.29E-13 cm^2/s | Partition Coefficient Stratum Corneum/Water ([10]; optimised based on [12]): 1.96

SMILES: C[n+]1ccc(-c2cc[n+](C)cc2)cc1 [Paraquat]
DART Hazard Call [1, 12]: Non Toxic | ADI [4]: ADI set by FSCJ (0.0045 mg/kg/day) | CDR fold difference to non-pregnant ([5]; Fetus population): 0.06 | CDR fold difference to pregnant ([5]; Fetus population): 1.15 | Fold Difference to non-pregnant ([5]; Foetus, oral): 0.056 | Fold Difference to pregnant ([5]; Foetus, oral): 1.15 | Mean Conc-dose -ratio ([5]; Foetus, oral): 0.000247 uM/(mg/day] | CDR fold difference to non-pregnant [5, 13]: 1.00 | TKVF [5, 14]: 3.16 | 95% percentile (Conc-dose-ratio) ([5]; Non-Pregnant, oral): 0.014 | Fold Difference to non-pregnant ([5]; Non-Pregnant, oral): 1.00 | Mean Conc-dose -ratio ([5]; Non-Pregnant, oral): 0.0044 uM/(mg/day] | TKVF ([5]; Non-Pregnant, oral): 3.16 | CDR fold difference to non-pregnant ([5]; Pregnant population): 0.05 | CDR fold difference to pregnant [5, 17]: 1.00 | Fold Difference to non-pregnant ([5]; Pregnant, oral): 0.05 | Fold Difference to pregnant ([5]; Pregnant, oral): 1.00 | Mean Conc-dose -ratio ([5]; Pregnant, oral): 0.000214 uM/(mg/day]

SMILES: O=C(O)c1ccccc1O [Salicylate]
MoS [4]: Used safely in cosmetic products. Existent consumer risk assessment from the SCCS. MoS >50 | TKVF [5, 14]: 1.96 | TKVF ([5]; Non-Pregnant, dermal, formulation Sodium salicylate): 1.52 | TKVF ([5]; Non-Pregnant, oral, formulation Acetyl salicylic acid): 1.96 | TKVF ([5]; Non-Pregnant, oral, formulation Sodium salicylate): 1.06 | TKVF [5, 18]: 2.34 | TKVF ([5]; Pregnant, oral, formulation Acetyl salicylic acid): 2.34

SMILES: Cn1c(=O)c2[nH]cnc2n(C)c1=O [Theophylline]
TKVF ([5]; female, human, in vivo): 1.73

SMILES: CC1=C(/C=C/C(C)=C/C=C/C(C)=C/C(=O)O)C(C)(C)CCC1 [all-tr-Retinoic Acid]
95% percentile (Conc-dose-ratio) [5, 19]: 0.00556 | Fold Difference to non-pregnant [5, 19]: 0.55 | Fold Difference to pregnant [5, 19]: 0.71 | Mean Conc-dose -ratio [5, 19]: 0.005 uM/(mg/day] | TKVF [5, 19]: 1.06 | 95% percentile (Conc-dose-ratio) [5, 20]: 0.00249 | Mean Conc-dose -ratio [5, 20]: 0.0015 uM/(mg/day] | TKVF [5, 20]: 1.66 | 95% percentile (Conc-dose-ratio) [5, 21]: 0.02 | Fold Difference to non-pregnant [5, 21]: 1.00 | Mean Conc-dose -ratio [5, 21]: 0.010 uM/(mg/day] | TKVF [5, 21]: 2.14 | 95% percentile (Conc-dose-ratio) [5, 22]: 0.0108 | Fold Difference to non-pregnant [5, 22]: 0.77 | Fold Difference to pregnant [5, 22]: 1.00 | Mean Conc-dose -ratio [5, 22]: 0.007 uM/(mg/day] | TKVF [5, 22]: 1.47
